“Also recorded” adds a separate entry of the source.
Legend:
[1] = test system: NLRP3 and proinflammatory cytokine gene expressions in HF PBMCs; experiment: RT-qPCR of NLRP3 and cytokine mRNA in Stage D HF PBMCs treated in vitro with NR; assay type: cell-based, human; conditions: 4-hour 1 mM NR vs vehicle
Protocol: PBMC and Monocyte Culture. Freshly isolated PBMCs or Monocytes from healthy or HF subjects were resuspended with RPMI medium plus 10% heat inactivated FBS. PBMCs (10^6 cells/well) were seeded in Seahorse 24-well plates and incubated at 37° C. in CO2 incubator with various proinflammatory triggers (Vehicle, MitoDAMP, LPS) and compounds (NR, MCC 950, MitoTempo, or LMT-28). After 4 hours incubation, the plate was centrifuged at 40 g for 10 minutes at room temperature without application of the brake to help cells attach to the bottom of the plate. The cells were washed twice and then brought up to 500 μL using Seahorse base medium (Agilent Technologies, supplemented with 1 mM pyruvate, 2 mM glutamine, and 10 mM glucose, pH 7.4).
IL6 ELISA. Isolated PBMCs (4×10^6 cells per sample) from healthy or HF participants were resuspended in RPMI medium containing 10% heat-inactivated FBS and treated with various proinflammatory triggers (Vehicle, MitoDAMP, LPS) and compounds (NR, MCC 950, MitoTempo, or LMT-28) to final PBMC concentrations of 10×10^6 cells per mL. See below for detailed descriptions of the reagents. […]
RNA Isolation and Quantitative PCR analysis. […] Real-time PCR was performed in the Corbett rotor gene 6000 real-time PCR machine using iQ™ SYBR® Green Supermix (Bio-rad) and expression levels of the indicated genes were calculated using the ΔΔCt method.

[2] = test system: secreted IL6 protein of healthy PBMC; experiment: IL6 ELISA of supernatant of cultured healthy PBMCs; assay type: cell-based, human; conditions: 4-hour 1 mM NR in the presence of MitoDAMP
Protocol: IL6 ELISA. Isolated PBMCs (4×10^6 cells per sample) from healthy or HF participants were resuspended in RPMI medium containing 10% heat-inactivated FBS and treated with various proinflammatory triggers (Vehicle, MitoDAMP, LPS) and compounds (NR, MCC 950, MitoTempo, or LMT-28) to final PBMC concentrations of 10×10^6 cells per mL. See below for detailed descriptions of the reagents. The samples were incubated in Eppendorf tubes at 37° C. in a 5% CO2 incubator with caps open for times designated in the brief description of drawings. The cultured PBMC samples were centrifuged at 8,000 RPM at room temperature. The supernatant was used for ELISA per the manufacture protocol using R&D Systems human IL6 kit (Cat #DY206-05). The cell pellets were stored in −80° C.

[3] = Randomized trial of NR in HFrEF: whole blood NR and NAD+ levels; assay type: in vivo, human
Protocol: At Week 0 (Randomization), participants underwent history, repeat 6MWD assessment and baseline transthoracic echocardiogram (FIG. 15). NR or matching placebo were started at the initial dose of 250 mg orally twice daily, then up-titrated by 250 mg twice daily each week to a final dose of 1000 mg twice daily by Week 3. Participants were continued on the 1000 mg twice daily dose until the final clinic visit on Week 12. Blood draws for study labs, including levels of NR and NAD were obtained at Weeks 0, 2, 4 and 12. Medications were dispensed at Weeks 0, 2, 4 and 8, with pill counts performed at Weeks 2, 4, 8 and 12. A telephone visit was performed at Week 6. The final echocardiogram and PBMC mitochondrial respiration assays were performed at Week 12. Study labs were performed by the UW Research Testing Service, except for NR and NAD+ assays, which were performed by the Pharmacokinetics Laboratory, Department of Pharmaceutics, UW School of Pharmacy. Procedures for blood collection and processing, as well as NR and NAD+ assay procedures, have been described previously (Airhart S E, et al., PLoS One. 2017, 12:e0186459).

[4] = Randomized trial of NR in HFrEF: exploratory endpoints (6MWD, MLHFQ, echocardiography); assay type: in vivo, human; conditions: Week 12 vs baseline; study not powered
Protocol: Peripheral Blood Mononuclear Cell (PBMC) Mitochondrial Function. PBMCs were isolated from freshly-collected whole blood by centrifugation in Sepmate™-50 PBMC isolation tubes (STEMCELL Technologies, Vancouver, BC, Canada; Cat. 85450). Isolated PBMCs were resuspended in Seahorse XF® medium (Agilent, Cat. 102353-100) and then plated (10^6 cells/well) onto Seahorse® (Agilent) 24-well plates. PBMC mitochondrial respiratory function was assessed by measuring the oxygen consumption rate (OCR) at baseline and maximal stimulated conditions as described in Zhou B, et al. (J Clin Invest. 2020, 130:6054-6063 (Experimental Example 1)). Exploratory Endpoints. The following endpoints were considered exploratory, as the Study was underpowered to detect differences.
Six minute walk distance (6MWD). Any potential “training” effect (Laboratories ATSCoPSfCPF. ATS statement: guidelines for the six-minute walk test. Am J Respir Crit Care Med. 2002, 166:111-7) for 6MWD results was mitigated by performing a “training” test at the Screening Visit, while the second test, performed at the Randomization Visit was considered the Baseline test.
Echocardiography. Serial echocardiograms were performed using a standardized data collection protocol determined using the TOMTEC Arena Image-Com (TOMTEC Imaging Systems, Unterschleissheim, Germany). All echocardiograms were interpreted by a single observer, blinded to participant clinical data, randomized treatment assignment and echocardiogram temporal sequence. For evaluation of left ventricular systolic function by 2-dimensional (2-D), transthoracic echocardiography, 28 study pairs (NR=18, placebo=10) had evaluable data. For evaluation of left ventricular diastolic function by […] (E/e′), 24 study pairs (NR=17, placebo=7) had evaluable data.
Minnesota Living with Heart Failure Questionnaire (MLHFQ). The MLHFQ was administered to Study participants at the Screening and Randomization visits, as well as at Study visits at Weeks 2, 3, 4, 8 and 12.

For NC(=O)c1ccc[n+]([C@@H]2O[C@H](CO)[C@@H](O)[C@H]2O)c1 [NR, nicotinamide riboside], the “reductions of NLRP3 and proinflammatory cytokine gene expressions” value [1] was “minimal”, the IL6 secretion [2] was “reduction” and the “changes in whole blood NAD+ levels on-trial (Week 12-Week 0), Mean+SE” value ([3]; NR group) was 30 ± 20 µM. For the same compound, the “blood NAD+ levels during the up-titration period” value ([3]; NR group, Week 0 to Week 4, maintained through Week 12) was “dose-dependent increase”, the “whole blood NAD+ levels at 4 h post-dose vs pre-NR dose” value ([3]; Week 4 visit, 1000 mg NR dose) was “unchanged” and the “whole blood NR levels 4 h post-dose vs pre-dose” value ([3]; Week 4 visit, 1000 mg NR dose) was “tended to increase; also recorded: rose significantly”. The “whole blood NAD+ levels” value ([3]; clinically-stable HF patients, NR treatment) was “doubled”, the concentration at 12 weeks ([3]; human, whole blood, oral, 1000 mg twice daily, NR group, read-out: on-trial changes in whole blood NR levels (Week 12-Week 0), Mean±SE) was 2 nM and the “blood NR level before the daily dose was administered” value ([3]; trough, throughout the study) was “low and variable”. For the same compound, the “functional capacity, 6-minute walk test distance, NR vs placebo” value [4] was “No on-trial differences between groups”, the “left ventricular diastolic function (E/e′), NR vs placebo” value [4] was “No on-trial differences between groups” and the “left ventricular systolic function, 2D-LVEF, NR vs placebo” value [4] was “No on-trial differences between groups”. The “quality of life, MLHFQ score, NR vs placebo” value [4] was “No on-trial differences between groups”.

Reference: patent US20230263817A1, “HIGH DOSE NICOTINAMIDE ADENINE DINUCLEOTIDE (NAD) PRECURSOR REGIMENS FOR REDUCTION OF INFLAMMATION IN HUMAN PATIENTS WITH PREEXISTING INFLAMMATION” (University of Washington, priority 2021, published 2023)
